Reference: ChEMBL document CHEMBL1150137, “Nanjiols A-C, new steroids from the Chinese soft coral Nephthea bayeri” (J Nat Prod, 2002)
≈ marks a conversion by molar mass, not a printed value.

Test system: HL-60
Experiment: Cytotoxicity against human HL60 cells
Type: functional, cell-based

SMILES: CC(=O)O[C@H]1C[C@H]2[C@@H]3CCC4=CC(=O)CC[C@]4(C)[C@H]3C[C@@H](OC(C)=O)[C@]2(C)[C@H]1[C@@](C)(O)CCCC(C)C [NANJIOL B]
- IC50: 5 µg/mL (≈ 9.68 µM)
